Data as given in the NIST ThermoML archive (doi:10.1016/j.jct.2013.08.013).

Legend:
[1] = 101 kPa, Liquid; for speed of sound: Frequency=2 MHz, Linear variable-path acoustic interferometer; for mass density: Vibrating tube method
[2] = xn = mol fraction of the nth substance listed; details: 101 kPa, Liquid; for speed of sound: Frequency=2 MHz, Linear variable-path acoustic interferometer; for mass density: Vibrating tube method

Cc1ccccc1Cl [2-chlorotoluene]
[1]
Details	mass density [kg/m3]	speed of sound [m/s]
298.15 K	1077.38	1299.8
303.15 K	1072.8	1283.6
308.15 K	1068.21	1265.6

Cc1ccccc1Cl [2-chlorotoluene] + CCCCCO
[2]
Details	mass density, 298.15 K [kg/m3]	mass density, 303.15 K [kg/m3]	mass density, 308.15 K [kg/m3]	speed of sound, 298.15 K [m/s]	speed of sound, 303.15 K [m/s]	speed of sound, 308.15 K [m/s]
x1 = 0.0964	838.77	834.85	830.94	1280.2	1263	1250
x1 = 0.189	865.02	860.96	856.9	1282.2	1264	1250.2
x1 = 0.294	894.17	889.95	885.73	1281.9	1262.5	1247.7
x1 = 0.388	919.71	915.37	911.06	1280.9	1260.7	1244.5
x1 = 0.4962	948.58	944.07	939.74	1279	1258.1	1240.9
x1 = 0.5892	972.97	968.37	963.98	1277.5	1255.8	1238.3
x1 = 0.697	1000.83	996.18	991.75	1278	1256.1	1238
x1 = 0.8057	1028.54	1023.88	1019.37	1281	1260.1	1242.2
x1 = 0.8949	1051.02	1046.43	1041.83	1287	1267.2	1250
x1 = 1	1077.38	1072.8	1068.21	1299.8	1283.6	1265.6

Cc1ccccc1Cl [2-chlorotoluene] + CCCCO
[2]
Details	mass density, 298.15 K [kg/m3]	mass density, 303.15 K [kg/m3]	mass density, 308.15 K [kg/m3]	speed of sound, 298.15 K [m/s]	speed of sound, 303.15 K [m/s]	speed of sound, 308.15 K [m/s]
x1 = 0.0914	837.37	833.28	829.2	1247.4	1231.4	1213.3
x1 = 0.2026	873.25	868.95	864.69	1255.5	1238.2	1219.2
x1 = 0.2888	899.51	895.11	890.72	1260.1	1241.1	1222.2
x1 = 0.3958	930.38	925.85	921.35	1264.2	1244.1	1224.3
x1 = 0.4973	958.03	953.44	948.87	1267.1	1246	1226
x1 = 0.6021	985.11	980.47	975.89	1269	1249.2	1227.4
x1 = 0.6969	1008.43	1003.83	999.22	1271.4	1250.4	1231
x1 = 0.7892	1030.29	1025.68	1021.07	1276.7	1255.4	1236.4
x1 = 0.894	1054.17	1049.55	1044.94	1285.6	1266.4	1247
x1 = 1	1077.38	1072.8	1068.21	1299.8	1283.6	1265.6

Cc1ccccc1Cl [2-chlorotoluene] + CCCO
[2]
Details	mass density, 298.15 K [kg/m3]	mass density, 303.15 K [kg/m3]	mass density, 308.15 K [kg/m3]	speed of sound, 298.15 K [m/s]	speed of sound, 303.15 K [m/s]	speed of sound, 308.15 K [m/s]
x1 = 0.089	837.16	832.98	828.75	1219	1200.1	1181.4
x1 = 0.1947	877.01	872.53	868.14	1232	1212.4	1192.8
x1 = 0.2938	910.41	905.71	901.22	1242.5	1221.5	1201.9
x1 = 0.3841	937.91	933.15	928.51	1249.2	1228.7	1207.8
x1 = 0.4898	967.13	962.37	957.66	1257	1234.8	1213.9
x1 = 0.5918	992.79	988	983.25	1262.5	1240.5	1219.2
x1 = 0.6979	1017.16	1012.42	1007.7	1269	1246.3	1225.2
x1 = 0.7955	1037.96	1033.25	1028.56	1275.3	1253.4	1234
x1 = 0.8932	1057.42	1052.78	1048.12	1284.4	1264.7	1245.4
x1 = 1	1077.38	1072.8	1068.21	1299.8	1283.6	1265.6

CCCCO [butan-1-ol]
[1]
Details	mass density [kg/m3]	speed of sound [m/s]
298.15 K	805.95	1238.9
303.15 K	802.11	1223.4
308.15 K	798.24	1206.8

CCCCO [butan-1-ol] + Cc1ccccc1Cl
[2], x2 = 0
Details	mass density [kg/m3]	speed of sound [m/s]
298.15 K	805.95	1238.9
303.15 K	802.11	1223.4
308.15 K	798.24	1206.8

CCCCCCCO [heptan-1-ol]
[1]
Details	mass density [kg/m3]	speed of sound [m/s]
298.15 K	818.79	1326.5
303.15 K	815.21	1313.6
308.15 K	811.62	1293.1

CCCCCCCO [heptan-1-ol] + Cc1ccccc1Cl
[2], x2 = 0
Details	mass density [kg/m3]	speed of sound [m/s]
298.15 K	818.79	1326.5
303.15 K	815.21	1313.6
308.15 K	811.62	1293.1

CCCCCCO [hexan-1-ol]
[1]
Details	mass density [kg/m3]	speed of sound [m/s]
298.15 K	815.31	1303.2
303.15 K	811.7	1286.4
308.15 K	808.06	1269.7

CCCCCCO [hexan-1-ol] + Cc1ccccc1Cl
[2], x2 = 0
Details	mass density [kg/m3]	speed of sound [m/s]
298.15 K	815.31	1303.2
303.15 K	811.7	1286.4
308.15 K	808.06	1269.7

CCCCCO [pentan-1-ol]
[1]
Details	mass density [kg/m3]	speed of sound [m/s]
298.15 K	810.82	1276.2
303.15 K	807.1	1259.5
308.15 K	803.38	1248.1

CCCCCO [pentan-1-ol] + Cc1ccccc1Cl
[2], x2 = 0
Details	mass density [kg/m3]	speed of sound [m/s]
298.15 K	810.82	1276.2
303.15 K	807.1	1259.5
308.15 K	803.38	1248.1

CCCO [propan-1-ol]
[1]
Details	mass density [kg/m3]	speed of sound [m/s]
298.15 K	799.65	1206.5
303.15 K	795.65	1188.6
308.15 K	791.65	1171.8

CCCO [propan-1-ol] + Cc1ccccc1Cl
[2], x2 = 0
Details	mass density [kg/m3]	speed of sound [m/s]
298.15 K	799.65	1206.5
303.15 K	795.65	1188.6
308.15 K	791.65	1171.8
